Laboratory results published in US9707242B2, “Use of 25-hydroxyvitamin D3 to enhance executive functions” (DSM IP ASSETS B.V., priority 2013, dated 2017).

How the values were obtained:
[1] = test system: frail elderly; test: Example 2: double-blind, randomized, placebo-controlled trial in the frail elderly; assay type: in vivo, human
From the text: The design is a parallel group, randomized, placebo-controlled, double-blind study with three different application groups. Each group has an appropriate number of participants (e.g., 20 participants). Eligibility is defined as being 65 years or older and being frail or pre-frail. Frailty is defined as having unintentional weight loss, weakness, self-reported exhaustion, slow walking speed, and/or low physical activity (see Fried L P, et al. Frailty in older adults: evidence for a phenotype. J Gerontol A Biol Sci Med Sci. […] A participant is classified as pre-frail when one or two of the aforementioned criteria are met, while frail is classified when three or more criteria are present. […] The duration of supplementation is 6 months (180 days). […] Double-blind randomization is carried out by means of a label code associated with a specific participant ID number, whose meaning is known only to the supplier. Participants are allocated randomly to these numbers. […] For baseline (Day 0) the following tests are performed: […] […] Executive functioning test batteries include the following standard tests of executive functioning: Trail Making Tests A and B (to determine the ratio of TMT-B/TMT-A), Stroop Colour-Word Test, including determining the Stroop ratio, calculated by Stroop card 3/((Stroop card 1+Stroop card 2)/2) and animal fluency test. […]

[2] = test system: healthy adults under 65; set-up: species or system human; conditions: in vivo
From the text: The design is a parallel group, randomized, placebo-controlled, double-blind study similar to that of Example 2, above, except that the participants are healthy adults under 65. The duration of supplementation is 6 months (180 days). Group size is chosen so that a statistically significant difference, if present, may be observed between placebo and test groups.
Participants are randomly allocated to either the 25-OH D3 group, Vitamin D3 group, (Vitamin D3+25-OH D3) group or placebo group. Double-blind randomization is carried out by means of a label code associated with a specific participant ID number, whose meaning is known only to the supplier. Participants are allocated randomly to these numbers.
For baseline (Day 0) the following tests are performed: Physical examination, vital signs (blood pressure, heart rate), demographics, clinical laboratory, FFQ, serum: 25-OH D3, 24,25(OH)2D, 1,25(OH)2D3, Vitamin D3, calcium, albumin, creatinine, fasting glucose, PTH; urine: calcium, creatinine; executive function tests (see below). […]
Executive functioning test batteries include the following standard tests of executive functioning: Trail Making Tests A and B (to determine the ratio of TMT-B/TMT-A), Stroop Colour-Word Test, including determining the Stroop ratio, calculated by Stroop card 3/((Stroop card 1+Stroop card 2)/2) and animal fluency test. […]

25-OH D3 serum level ([1]; in vivo): significantly increases | 25-OH D serum level [2]: significantly increases
Structure (SMILES): C=C1CC[C@H](O)C/C1=C/C=C1\CCC[C@]2(C)[C@@H]([C@H](C)CCCC(C)(C)O)CC[C@@H]12 [25(OH)D, 25-hydroxyvitamin D3]
improvement of executive functioning ([1]; frail elderly, 6 months, in comparison to Vitamin D3 and placebo): significantly higher effect
